Measured values published in ChEMBL document CHEMBL1157986, “Vismiaphenones D-G, new prenylated benzophenones from Vismia cayennensis” (J Nat Prod, 1999).
≈ marks a conversion by molar mass, not a printed value.

Legend:
[1] = tested on: Human immunodeficiency virus; assay: Antiviral activity against HIV; assay type: functional, organism-based; settings: Human immunodeficiency virus 1
CEM-SS = assay: Cytotoxicity against human CEM-SS cells; assay type: functional, cell-based

COc1c(CC=C(C)C)c(O)c(C(=O)c2ccc(O)cc2)c(O)c1CC=C(C)C [VISMIAPHENONE D]
EC50 [1]: 11 µg/mL (≈ 27.7 µM)
IC50 (CEM-SS): 30 µg/mL (≈ 75.7 µM)
